Measurements published in ChEMBL document CHEMBL5500371, “Arginine and tryptophan-rich dendritic antimicrobial peptides that disrupt membranes for bacterial infection in vivo” (Eur J Med Chem, 2024).
Converted amounts (≈) assume the structure as drawn. Where a SMILES comes first, the peptide text is derived from it. Side-chain parts run from the residue outwards.

How the values were obtained:
Bacillus subtilis = experiment: Antibacterial activity against Bacillus subtilis ATCC 23857 assessed as inhibition of bacterial growth incubated for 20 hrs by broth microdilution method; assay type: functional
Acinetobacter baumannii = experiment: Antibacterial activity against Acinetobacter baumannii ATCC 19606 assessed as inhibition of bacterial growth incubated for 20 hrs by broth microdilution method; assay type: functional
Erythrocyte = experiment: Hemolytic activity in mouse erythrocytes assessed as 10% hemolysis incubated for 1 hr by absorbance based analysis; assay type: toxicity, cell-based
Escherichia coli = experiment: Antibacterial activity against Escherichia coli ATCC 25922 assessed as inhibition of bacterial growth incubated for 20 hrs by broth microdilution method; assay type: functional
[1] = Cytotoxicity against HEK293T cells assessed as cell death measured after 1 hr by resazurin dye based analysis; assay type: toxicity, HEK-293T; conditions: human, HEK293T cells
Klebsiella pneumoniae = experiment: Antibacterial activity against Klebsiella pneumoniae ATCC 700603 assessed as inhibition of bacterial growth incubated for 20 hrs by broth microdilution method; assay type: functional
Pseudomonas aeruginosa = experiment: Antibacterial activity against Pseudomonas aeruginosa ATCC 27853 assessed as inhibition of bacterial growth incubated for 20 hrs by broth microdilution method; assay type: functional
Staphylococcus aureus = experiment: Antibacterial activity against Staphylococcus aureus ATCC 25923 assessed as inhibition of bacterial growth incubated for 20 hrs by broth microdilution method; assay type: functional

Row | Molecule | MIC (Bacillus subtilis) [µM] | MIC (Acinetobacter baumannii) [µM] | MHC10 (Erythrocyte) [µM] | MIC (Escherichia coli) [µM] | CC50 at 1 h [1] [µM] | MIC (Klebsiella pneumoniae) [µM] | MIC (Pseudomonas aeruginosa) [µM] | MIC (Staphylococcus aureus) [µM]
1 | H-WWWWWWKRRRRRRR-NH2 | 16 | 32 | 27.86 | 32 | 46.6 | 32 | 32 | 32
2 | N=C(N)NCCC[C@H](NC(=O)[C@H](CCCNC(=N)N)NC(=O)[C@H](CCCCNC(=O)[C@@H](N)Cc1c[nH]c2ccccc12)NC(=O)[C@@H](N)Cc1c[nH]c2ccccc12)C(N)=O (H-WK(Trp)RR-NH2) | > 128 | > 128 | > 256 | > 128 | > 128 | > 128 | > 128 | > 128
3 | N=C(N)NCCC[C@H](NC(=O)[C@H](CCCNC(=N)N)NC(=O)[C@H](CCCNC(=N)N)NC(=O)[C@H](CCCNC(=N)N)NC(=O)[C@H](CCCNC(=N)N)NC(=O)[C@H](CCCNC(=N)N)NC(=O)[C@H](CCCNC(=N)N)NC(=O)[C@H](CCCCNC(=O)[C@H](Cc1c[nH]c2ccccc12)NC(=O)[C@H](Cc1c[nH]c2ccccc12)NC(=O)[C@@H](N)Cc1c[nH]c2ccccc12)NC(=O)[C@H](Cc1c[nH]c2ccccc12)NC(=O)[C@H](Cc1c[nH]c2ccccc12)NC(=O)[C@@H](N)Cc1c[nH]c2ccccc12)C(N)=O | 16 (≈ 37.7 µg/mL) | 32 (≈ 75.4 µg/mL) | 17.53 | 32 (≈ 75.4 µg/mL) | 41.9 | 64 (≈ 151 µg/mL) | 16 (≈ 37.7 µg/mL) | 16 (≈ 37.7 µg/mL)
4 | N=C(N)NCCC[C@H](NC(=O)[C@H](CCCCN)NC(=O)[C@H](Cc1c[nH]c2ccccc12)NC(=O)[C@@H](N)Cc1c[nH]c2ccccc12)C(N)=O (H-WWKR-NH2) | > 128 | > 128 | > 256 | > 128 | > 128 | > 128 | > 128 | > 128
5 | N=C(N)NCCC[C@H](NC(=O)[C@H](CCCNC(=N)N)NC(=O)[C@@H](N)CCCNC(=N)N)C(=O)NCCCC[C@H](NC(=O)[C@H](CCCNC(=N)N)NC(=O)[C@H](CCCNC(=N)N)NC(=O)[C@@H](N)CCCNC(=N)N)C(=O)N[C@@H](Cc1c[nH]c2ccccc12)C(=O)N[C@@H](Cc1c[nH]c2ccccc12)C(=O)N[C@@H](Cc1c[nH]c2ccccc12)C(=O)N[C@@H](Cc1c[nH]c2ccccc12)C(=O)N[C@@H](Cc1c[nH]c2ccccc12)C(=O)N[C@@H](Cc1c[nH]c2ccccc12)C(N)=O (H-RRRK([Arg-Arg-Arg])WWWWWW-NH2) | 16 (≈ 35.2 µg/mL) | 32 (≈ 70.4 µg/mL) | 22.12 | 32 (≈ 70.4 µg/mL) | 34 | 32 (≈ 70.4 µg/mL) | 32 (≈ 70.4 µg/mL) | 32 (≈ 70.4 µg/mL)
6 | N=C(N)NCCC[C@H](NC(=O)[C@@H](N)CCCNC(=N)N)C(=O)NCCCC[C@H](NC(=O)[C@H](CCCNC(=N)N)NC(=O)[C@@H](N)CCCNC(=N)N)C(=O)N[C@@H](Cc1c[nH]c2ccccc12)C(=O)N[C@@H](Cc1c[nH]c2ccccc12)C(=O)N[C@@H](Cc1c[nH]c2ccccc12)C(N)=O (H-RRK([Arg-Arg])WWW-NH2) | 4 (≈ 5.31 µg/mL) | > 128 | > 256 | 16 (≈ 21.3 µg/mL) | > 128 | 64 (≈ 85 µg/mL) | 16 (≈ 21.3 µg/mL) | 16 (≈ 21.3 µg/mL)
7 | H-RRKWWW-NH2 | 16 | 128 | > 256 | 64 | > 128 | > 128 | 128 | 64
8 | N=C(N)NCCC[C@H](N)C(=O)NCCCC[C@H](NC(=O)[C@@H](N)CCCNC(=N)N)C(=O)N[C@@H](Cc1c[nH]c2ccccc12)C(=O)N[C@@H](Cc1c[nH]c2ccccc12)C(=O)N[C@@H](Cc1c[nH]c2ccccc12)C(N)=O (H-RK(Arg)WWW-NH2) | 32 (≈ 32.5 µg/mL) | > 128 | > 256 | > 128 | > 128 | > 128 | 32 (≈ 32.5 µg/mL) | 32 (≈ 32.5 µg/mL)
9 | H-RRRRRRKWWWWW-NH2 | 8 | 32 | 42.8 | 16 | 55.1 | 32 | 32 | 16
10 | N=C(N)NCCC[C@H](NC(=O)[C@H](CCCCNC(=O)[C@@H](N)Cc1c[nH]c2ccccc12)NC(=O)[C@@H](N)Cc1c[nH]c2ccccc12)C(N)=O (H-Trp-Lys(Trp)-Arg-NH2) | 128 (≈ 86.2 µg/mL) | > 128 | > 256 | > 128 | > 128 | > 128 | > 128 | > 128
11 | N=C(N)NCCC[C@H](NC(=O)[C@H](CCCNC(=N)N)NC(=O)[C@H](CCCNC(=N)N)NC(=O)[C@H](CCCNC(=N)N)NC(=O)[C@H](CCCNC(=N)N)NC(=O)[C@H](CCCNC(=N)N)NC(=O)[C@H](CCCCNC(=O)[C@H](Cc1c[nH]c2ccccc12)NC(=O)[C@H](Cc1c[nH]c2ccccc12)NC(=O)[C@@H](N)Cc1c[nH]c2ccccc12)NC(=O)[C@H](Cc1c[nH]c2ccccc12)NC(=O)[C@H](Cc1c[nH]c2ccccc12)NC(=O)[C@@H](N)Cc1c[nH]c2ccccc12)C(N)=O (H-WWWK([Trp-Trp-Trp])RRRRRR-NH2) | 8 (≈ 17.6 µg/mL) | 32 (≈ 70.4 µg/mL) | 17.61 | 32 (≈ 70.4 µg/mL) | 41.7 | 32 (≈ 70.4 µg/mL) | 16 (≈ 35.2 µg/mL) | 16 (≈ 35.2 µg/mL)
12 | CN[C@H](CC(C)C)C(=O)N[C@H]1C(=O)N[C@@H](CC(N)=O)C(=O)N[C@H]2C(=O)N[C@H]3C(=O)N[C@H](C(=O)N[C@H](C(=O)O)c4cc(O)cc(O)c4-c4cc3ccc4O)[C@H](O)c3ccc(c(Cl)c3)Oc3cc2cc(c3O[C@@H]2O[C@H](CO)[C@@H](O)[C@H](O)[C@H]2O[C@H]2C[C@](C)(N)[C@H](O)[C@H](C)O2)Oc2ccc(cc2Cl)[C@H]1O [VANCOMYCIN] | < 1 | 64 (≈ 92.8 µg/mL) | – | 64 (≈ 92.8 µg/mL) | – | 128 (≈ 186 µg/mL) | > 128 | < 1
13 | H-WWWWKRRRRR-NH2 | 8 | 32 | > 256 | 16 | 116 | 32 | 16 | 8
14 | N=C(N)NCCC[C@H](NC(=O)[C@H](CCCNC(=N)N)NC(=O)[C@H](CCCNC(=N)N)NC(=O)[C@H](CCCNC(=N)N)NC(=O)[C@H](CCCNC(=N)N)NC(=O)[C@H](CCCCNC(=O)[C@H](Cc1c[nH]c2ccccc12)NC(=O)[C@H](Cc1c[nH]c2ccccc12)NC(=O)[C@@H](N)Cc1c[nH]c2ccccc12)NC(=O)[C@H](Cc1c[nH]c2ccccc12)NC(=O)[C@H](Cc1c[nH]c2ccccc12)NC(=O)[C@@H](N)Cc1c[nH]c2ccccc12)C(N)=O (H-WWWK([Trp-Trp-Trp])RRRRR-NH2) | 8 (≈ 16.3 µg/mL) | 32 (≈ 65.4 µg/mL) | 22.73 | 16 (≈ 32.7 µg/mL) | 48.2 | 32 (≈ 65.4 µg/mL) | 32 (≈ 65.4 µg/mL) | 8 (≈ 16.3 µg/mL)
15 | H-WWWWWWKRRRRRR-NH2 | 8 | 32 | 34.63 | 16 | 45 | 16 | 32 | 8
16 | H-RRRRKWWW-NH2 | 8 | 128 | > 256 | 64 | > 128 | 64 | 16 | 8
17 | H-RRKWW-NH2 | 64 | > 128 | > 256 | > 128 | > 128 | > 128 | > 128 | > 128
18 | H-WWWWKRRR-NH2 | 8 | 32 | > 256 | 32 | > 128 | 64 | 16 | 8
